Data published in US20100144759A1, “NOVEL N-(FLUORO-PYRAZINYL)-PHENYLSULFONAMIDES AS MODULATORS OF CHEMOKINE RECEPTOR CCR4” (AstraZeneca AB, priority 2005, published 2010).

Key:
[1] = test system: salmonella typhimurium LT2 strains TA98 and TA100; assay: Metabolite testing: mutagenicity (Maron and Ames test); format: cell-based; conditions: strains TA98 and TA100, with or without metabolic activation (rat liver S9)
Description: 5-Fluoro-3-methoxy-2-pyrazinamine and 6-fluoro-3-methoxy-2-pyrazinamine were tested for mutagenicity according to the test procedure of Maron and Ames described in Mutation Res. 1983; 113:173-215 using salmonella typhimurium LT2 strains TA98 and TA100. For metabolic activation a homogenate of liver from Aroclor 1254-treated rats (post-mitochondrial fraction (S9) purchased from Molecular Toxicology Inc., Boone, N.C., USA) was added to agar plates (without histidine) together with the test compound and the bacterial tester strains; the complete activation system employed was: phosphate buffer (0.1 mol/L, pH 7.4):100 mmol/L; magnesium chloride: 8 mmol/L; potassium chloride: 33 mmol/L; nicotinamide adenine dinucleotide phosphate: 4 mmol/L; glucose-6-phosphate:5 mmol/L; and rat liver homogenate (S9 fraction):10% v/v. The mean number of revertant colonies and sample standard deviation (from control plates) were calculated for each test group. A test compound was considered to be mutagenic when the following criteria were satisfied: i) the number of revertant colonies in any strain increased in the presence of one or more dose of the test compound, with or without metabolic activation ii) there was a dose-related increase in the number of revertant colonies, and iii) any increase was reproducible.

CCR4 [2] = target: T1, CCR4 (Homo sapiens, UniProt P51679); assay: Predicted whole blood potency; conditions: calculated: CCR4 pIC50+Log((100−% Bound)/100)
T1 construct: host or cells: CHO-K1
T1 sequence (P51679 1-360): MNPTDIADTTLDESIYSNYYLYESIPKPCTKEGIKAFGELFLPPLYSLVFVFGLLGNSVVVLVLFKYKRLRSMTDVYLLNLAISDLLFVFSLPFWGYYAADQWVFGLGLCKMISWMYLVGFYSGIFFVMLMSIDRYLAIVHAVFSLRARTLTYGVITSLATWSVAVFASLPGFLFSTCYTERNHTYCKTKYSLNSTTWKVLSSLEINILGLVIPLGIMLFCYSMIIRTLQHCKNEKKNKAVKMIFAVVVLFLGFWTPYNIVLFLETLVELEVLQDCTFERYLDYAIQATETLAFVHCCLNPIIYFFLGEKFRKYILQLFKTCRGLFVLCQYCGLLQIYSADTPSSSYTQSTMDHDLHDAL
Description: Predicted whole blood potency is a measure of the combined effects of CCR4 activity and plasma protein binding, and is calculated by the formula: Whole Blood Potency=CCR4 pIC50+Log((100−% Bound)/100).

CCR4 [3] = target: T1, CCR4; assay: FMAT whole cell binding assay; conditions: CHO-K1 cells expressing human recombinant CCR4; inhibition of FB-MDC binding; read-out: FMAT CCR4 pIC50 (converted)
Description: CHO-K1 cells stably expressing the human recombinant CCR4 receptor (Euroscreen; Brussels, Belgium) were cultured in NUT.MIX.F—12(HAM) medium with glutamax-1, containing 10% (v/v) foetal bovine serum and 400 μg ml^−1 geneticin.
Cells were harvested at approximately 70% confluence by treatment with a cell dissociation buffer, and seeded at 5×10^3 cells/100 μl culture medium into wells of a black Costar clear-bottomed 96-well microtitre plates. Plates were incubated overnight at 37° C. in 5% CO2 and used the following day.
Before use, the cell plates were washed twice with 100 μl Hanks balanced salt solution (HBSS).
After two hours incubation in the dark at room temperature, the plates were analysed in an FMAT8100 reader (Applied Biosystems) to measure fluorescence that was associated with binding of FB-MDC to the cells.

[4] = Measurement of plasma protein binding (equilibrium dialysis); format: in vitro ADME; conditions: pooled human plasma, human plasma vs buffer pH 7.4, 37° C., 10 μM compound, read-out: % Bound Human Plasma (converted)
Description: The extent of plasma protein binding was determined via equilibrium dialysis of a compound between human plasma and aqueous buffer at 37° C. and determination of the concentration of compound in the plasma and buffer by HPLC-MS/MS.
Dialysis cells (molecular weight cut-off 5000) were prepared by rinsing with water followed by soaking in the dialysis buffer for a minimum of 1 hour. The dialysis buffer was isotonic buffered saline pH 7.4. Stock solutions of compound in dimethylsulphoxide were prepared at a concentration of 1 mM. Frozen pooled Human plasma was obtained from volunteers.
The stock DMSO solution of a compound was added to the plasma at a ratio of 10 μl of DMSO to each ml of plasma.
Dialysis cells were then prepared and one half of the cell filled with 750 μl of dialysis buffer and the other half of the cell with 750 μl of plasma solution of compound. Once prepared the cells were sealed and immersed in a water bath at 37° C. These cells were then rotated for a minimum of 4 hours to equilibrate.
After equilibration 500 μl of the buffer samples were removed and added to HPLC vials along with 100 μl of plasma (sample in 6-fold diluted plasma), and 100 μl of the plasma samples were removed and added to HPLC vials along with 500 μl of dialysis buffer (sample in 6-fold diluted plasma).
The samples were then analysed using HPLC-MS/MS.
The concentration of compound in the samples were determined using MassLynx version 4.0 software (produced by Waters/Micromass) that automatically calculated a calibration curve and the concentration of compound in the cells. Plasma protein binding was determined from the calibration curve as the percentage of compound bound in human plasma (% bound) using the following equation wherein the factor in the numerator accounts for the small dilution of the aqueous samples with plasma and the factor of 6 in the denominator serves to correct for the 6-fold dilution of the plasma samples with buffer;

SMILES | mutagenicity test result [1] | Whole Blood Potency (CCR4 [2]) | IC50 (CCR4 [3]) | fraction unbound at 10 µM [4]
COc1nc(F)cnc1N [5-fluoro-3-methoxy-2-pyrazinamine, 5-Fluoro-3-methoxy-2-pyrazinamine] | negative |  |  | 
COc1ncc(F)nc1N [6-fluoro-3-methoxy-2-pyrazinamine] | negative |  |  | 
COc1nc(Cl)cnc1NS(=O)(=O)c1cccc(Cl)c1Cl [Ex. 5 WO03/059893, 2,3-dichloro-N-(5-chloro-3-methoxy-2-pyrazinyl)benzenesulphonamide, reference compound] |  | 5.2 | 12.6 nM | 0.002
COc1nc(Br)cnc1NS(=O)(=O)c1cccc(Cl)c1Cl [Ex. 8 WO03/059893, 2,3-dichloro-N-(5-bromo-3-methoxy-2-pyrazinyl)benzenesulphonamide, reference compound] |  | 5.6 | 5.01 nM | 0.002
COc1nccnc1NS(=O)(=O)c1cccc(Cl)c1Cl [Ex. 30 WO03/059893, 2,3-dichloro-N-(3-methoxy-2-pyrazinyl)benzenesulphonamide, reference compound] |  | 5.7 | 20 nM | 0.011
COc1nc(F)cnc1NS(=O)(=O)c1cccc(F)c1Cl [Example 1, 2-Chloro-3-fluoro-N-(5-fluoro-3-methoxypyrazin-2-yl)-benzenesulfonamide] |  | 6.3 | 5.01 nM | 0.01
COc1nc(F)cnc1NS(=O)(=O)c1cccc(Cl)c1Cl [Example 2, 2,3-dichloro-N-(5-fluoro-3-methoxypyrazin-2-yl)-benzenesulfonamide] |  | 6.3 | 3.16 nM | 0.006
COc1ncc(F)nc1NS(=O)(=O)c1cccc(Cl)c1Cl [Example 3, 2,3-Dichloro-N-(6-fluoro-3-methoxypyrazin-2-yl)-benzenesulfonamide] |  | 6.0 | 3.16 nM | 0.003
COc1nc(CO)c(F)nc1NS(=O)(=O)c1cccc(Cl)c1Cl [Example 4, 2,3-Dichloro-N-[6-fluoro-5-(hydroxymethyl)-3-methoxypyrazin-2-yl]-benzenesulfonamide] |  | 5.9 | 15.8 nM | 0.013
COc1nc(F)cnc1NS(=O)(=O)c1cccc(Cl)c1F [Example 5, 3-Chloro-2-fluoro-N-(5-fluoro-3-methoxypyrazin-2-yl)-benzenesulfonamide] |  | 6.0 | 10 nM | 0.011
COc1nc(F)c(CO)nc1NS(=O)(=O)c1cccc(Cl)c1Cl [Example 6, 2,3-Dichloro-N-[5-fluoro-6-(hydroxymethyl)-3-methoxypyrazin-2-yl]-benzenesulfonamide] |  | 5.9 | 6.31 nM | 0.005
COc1nc(F)cnc1NS(=O)(=O)c1cccc(Cl)c1C [Example 7, 3-Chloro-N-(5-fluoro-3-methoxypyrazin-2-yl)-2-methyl-benzenesulfonamide] |  | 6.0 | 3.98 nM | 0.004
